# Patent publication US10085449B2, “N-[1-((6-chloropyridin-3-yl)methyl)pyridin-2(1H)-ylidene]-2,2,2- trifluoroacetamide for control of agricultural/horticultural pests” (priority 2010, dated 2018)
# Read-outs that look alike come from different tables or passages of the source.
# How the values were obtained:
# [1] = tested on: white-backed rice planthopper; test: White-backed rice planthopper control test (foliar application); format: in vivo; conditions: 100 ppm foliar application, second-instar larvae on rice seedlings, 4 days after release
# Description: (§1) Rice seedlings grown in pots were subjected to the foliar application of solutions of the inventive compounds at a predetermined concentration prepared to 50% acetone/water (containing 0.05% Tween 20). The treated seedlings were air dried, following which second-instar larvae were released onto the seedlings. The seedlings and larvae were then held in an incubation chamber at 25° C. (16-hour period of light, 8-hour dark period). Four days after released, the numbers of live and dead insects were counted, and the mortality was calculated from the following formula. This was a two-replication test. Mortality (%)=[number of dead insects/(number of live insects+number of dead insects)]×100
# [2] = tested on: canine heartworm microfilariae; test: Effects on canine heartworm (motility of microfilariae); set-up: key: At least two-thirds of the heartworms died; B: Substantially all the heartworms were affected in some way, or at least one-third died; C: No influence, or less than one-third of the heartworms died; conditions: 3.13 ppm in RPMI1640 liquid culture medium, 37° C., observed for 48 hours
# Description: The activities of the compounds were evaluated based on changes in the motility of microfilariae in canine heartworm. The respective compounds were dissolved in a RPMI1640 liquid culture medium to a concentration of 3.13 ppm, following which about 20 canine heartworm microfilariae were placed in each culture fluid and cultured at 37° C.
# Criteria A: At least two-thirds of the heartworms died • B: Substantially all the heartworms were affected in some way, or at least one-third died • C: No influence, or less than one-third of the heartworms died
# greenhouse whitefly = test: whole plant or invertebrate; format: in vivo
# Description: Adult greenhouse whiteflies were released onto cucumber plants grown in pots, and allowed to laid eggs overnight. One day after the start of oviposition, the adults were removed, and the plants and eggs were held in an incubation chamber at 25° C. (16-hour period of light, 8-hour dark period). Three days after the end of oviposition, leaf discs 2.0 cm in diameter were cut from the cucumber plants and, after confirming oviposition thereon, the leaf discs were sprayed with solutions of the inventive compounds at a predetermined concentration prepared to 50% acetone/water (containing 0.05% Tween 20). After spraying, the treated leaf discs were held in an incubation chamber at 25° C. (16-hour period of light, 8-hour dark period). Fourteen days after spraying, the numbers of live and dead insects were counted, and the mortality was calculated from the following formula. This was a two-replication test. Mortality (%)=[(number of oviposited eggs−number of live insects)/number of oviposited eggs]×100
# small brown planthopper [3] = test: whole plant or invertebrate; format: in vivo; conditions: Laodelphax striatellus, 72 h
# Description: (§2) Rice seedlings grown in pots were subjected to soil drenching treatment with solutions of the inventive compounds at a predetermined concentration prepared to 10% acetone/water. Three days following treatment, ten second-instar small brown planthopper larvae were released onto each seedling. The treated seedlings and larvae were then held in an incubation chamber at 25° C. (16-hour period of light, 8-hour dark period). Three days after released, the numbers of live and dead insects were counted, and the mortality was calculated from the following formula. The test was carried out as two replications. Mortality (%)=[number of dead insects/(number of live insects+number of dead insects)]×100
# common cutworm = test: whole plant or invertebrate; format: in vivo; conditions: for Insecticidal effects (mortality), common cutworm third-instar larvae: foliar application
# Description: (§3) Leaf discs 5.0 cm in diameter were cut from cabbage plants grown in pots, and these were sprayed with solutions of the inventive compounds at a predetermined concentration prepared to 50% acetone/water (containing 0.05% Tween 20). The treated leaf discs were air dried, following which third-instar larvae were released onto the discs. The leaf discs and larvae were then held in an incubation chamber at 25° C. (16-hour period of light, 8-hour dark period). Three days after released, the numbers of live and dead insects were counted, and the mortality was calculated from the following formula. This was a two-replication test. Mortality (%)=[number of dead insects/(number of live insects+number of dead insects)]×100
# rice leaf bug = test: whole plant or invertebrate; format: in vivo; conditions: foliar, 72 h
# Description: The treated seedlings were air-dried, then each was placed in a glass cylinder and two second-instar rice leaf bug larvae were released within the same glass cylinder. Following release of the insects, the tube was capped and held in an incubation chamber at 25° C. (16-hour period of light, 8-hour dark period). […] Three days after released, the numbers of live and dead insects were counted, and the mortality was calculated from the following formula. Mortality (%)=[number of dead insects/(number of live insects+number of dead insects)]×100
# diamondback moth = test: whole plant or invertebrate; format: in vivo; conditions: Plutella xylostella, foliar
# Description: as §3, with “second-instar” for “third-instar”
# small brown planthopper [4] = test: whole plant or invertebrate; format: in vivo; conditions: Laodelphax striatellus, foliar
# Description: as §1, with “Three” for “Four”
# cotton aphid = test: whole plant or invertebrate; format: in vivo; conditions: Aphis gossypii, foliar
# Description: as §3, with “2.0” for “5.0”, “cucumber” for “cabbage”, “first-instar” for “third-instar”
# small brown planthopper [5] = test: whole plant or invertebrate; format: in vivo; conditions: Laodelphax striatellus, in Triticum aestivum, 96 h
# Description: as §2, with “Wheat seedling roots 48 hours after sowing” for “Rice seedlings grown in pots”, “treated” for “subjected to soil drenching treatment”, “After allowing the roots to absorb the chemical for 72 hours,” for “Three days following treatment,”, “Four” for “Three”
# western flower thrips = test: whole plant or invertebrate; format: in vivo; conditions: Frankliniella occidentalis, foliar
# Description: as §3, with “2.8” for “5.0”, “bean” for “cabbage”, “first-instar” for “third-instar”
# [6] = tested on: small brown planthopper having a low susceptibility to insecticides; test: Small brown planthopper control test, pests having a low susceptibility to insecticides (soil drenching); format: in vivo; conditions: 0.01 mg/seedling soil drenching
# Description: as §2, with “days after” for “days following”, “larvae having a low susceptibility to insecticides” for “larvae”, “The” for “The treated”, “and insects” for “and larvae”
# The pests used in this test were insects that had been raised indoors for successive generations over a long period of time (susceptible line), and insects that had been raised indoors for successive generations after being collected in 2006 within Kumamoto Prefecture (field-collected line).
# [7] = soil, read-out: Insecticidal effects (mortality), small brown planthopper second-instar larvae
# [8] = read-out: Insecticidal effects (mortality), diamondback moth second-instar larvae
# [9] = read-out: Insecticidal effects (mortality), small brown planthopper second-instar larvae
# [10] = read-out: Insecticidal effects (mortality), cotton aphid first-instar larvae
# [11] = read-out: Insecticidal effects (mortality), western flower thrips first-instar larvae
smiles,measurement,setting,value
"CSCCN(C#N)Cc1ccc(Cl)nc1 [Compound 1, 2-chloro-5-[N-cyano-N-(2-methylthioethyl)]aminomethylpyridine]",Mortality,[1],at least 80%
same,Microfilaricidal effect (motility rating),[2],B
"CSC(=S)SCCN(C#N)Cc1ccc(Cl)nc1 [Compound 6, 2-[N-(6-chloro-3-pyridylmethyl)cyanamide] ethyl methylcarbonotrithioate]",Microfilaricidal effect (motility rating),[2],B
CCSC(=S)SCCN(C#N)Cc1ccc(Cl)nc1 [Compound 7],Microfilaricidal effect (motility rating),[2],B
CCCSC(=S)SCCN(C#N)Cc1ccc(Cl)nc1 [Compound 8],Microfilaricidal effect (motility rating),[2],B
O=C(N=c1ccccn1Cc1cnc(Cl)s1)C(F)(F)F [Compound 213],Mortality,"greenhouse whitefly; 20 ppm foliar application, eggs on cucumber leaf discs, 14 days after spraying",at least 80%
"O=C(N=c1ccccn1Cc1ccc(F)nc1)C(F)(F)F [Compound 229, N-[1-((6-fluoropyridin-3-yl)methyl)pyridin-2(1H)-ylidene]-2,2,2-trifluoroacetamide]",pest or weed control at 0.005 mg/pot,"small brown planthopper [3]; rice soil drenching, 0.005 mg/pot (Table 13), read-out: Small brown planthopper (rice soil drenching), effect",30%
same,pest or weed control at 0.01 mg/pot,"small brown planthopper [3]; rice soil drenching, 0.01 mg/pot (Table 13), read-out: Small brown planthopper (rice soil drenching), effect",100%
same,pest or weed control at 0.05 mg/pot,"small brown planthopper [3]; rice soil drenching, 0.05 mg/pot (Table 13), read-out: Small brown planthopper (rice soil drenching), effect",100%
same,mortality at 0.05 mg/seedling,small brown planthopper [3]; soil,≥ 80%
same,mortality at 0.005 mg/pot,small brown planthopper [3]; [7],30%
same,mortality at 0.01 mg/pot,small brown planthopper [3]; [7],100%
same,mortality at 0.05 mg/pot,small brown planthopper [3]; [7],100%
same,"Insecticidal effects (mortality), common cutworm third-instar larvae",common cutworm; 100 ppm,30
same,"Insecticidal effects (mortality), common cutworm third-instar larvae",common cutworm; 500 ppm,100
same,mortality at 500 ppm,"common cutworm; foliar, 72 h",≥ 80%
same,mortality at 50 ppm,rice leaf bug,≥ 80%
same,mortality at 20 ppm,diamondback moth; [8],40%
same,mortality at 100 ppm,diamondback moth; [8],100%
same,mortality at 500 ppm,diamondback moth; [8],100%
same,mortality at 100 ppm,"diamondback moth; in Brassica oleracea, 72 h",≥ 80%
same,mortality at 500 ppm,"diamondback moth; in Brassica oleracea, 72 h",≥ 80%
same,mortality at 100 ppm,"greenhouse whitefly; Cucumis sativus, foliar, 336 h",≥ 80%
same,mortality at 5 ppm,small brown planthopper [4]; [9],95%
same,mortality at 100 ppm,"small brown planthopper [4]; in Oryza sativa, 72 h",≥ 80%
same,mortality at 1.25 ppm,cotton aphid; [10],80%
same,mortality at 5 ppm,cotton aphid; [10],95%
same,mortality at 20 ppm,cotton aphid; [10],100%
same,mortality at 100 ppm,cotton aphid; [10],100%
same,mortality at 500 ppm,cotton aphid; [10],100%
same,mortality at 20 ppm,"cotton aphid; in Cucumis sativus, 72 h",≥ 80%
same,mortality at 100 ppm,"cotton aphid; in Cucumis sativus, 72 h",≥ 80%
same,mortality at 500 ppm,"cotton aphid; in Cucumis sativus, 72 h",≥ 80%
same,mortality at 20 µg/seedling,small brown planthopper [5],≥ 80%
same,mortality at 0.063 mg/seedling,small brown planthopper [5]; [9],25%
same,mortality at 0.25 mg/seedling,small brown planthopper [5]; [9],75%
same,mortality at 0.5 mg/seedling,small brown planthopper [5]; [9],100%
same,mortality at 2 mg/seedling,small brown planthopper [5]; [9],100%
same,mortality at 500 ppm,western flower thrips; 72 h,≥ 80%
same,mortality at 100 ppm,western flower thrips; [11],60%
same,mortality at 500 ppm,western flower thrips; [11],100%
N#Cc1nn(-c2c(Cl)cc(C(F)(F)F)cc2Cl)c(N)c1[S+]([O-])C(F)(F)F (stereo not shown) [fipronil],Mortality,[6]; field-collected line (2006 Kumamoto Prefecture),70%
same,Mortality,[6]; susceptible line,100%
